{"source": "the supplement of paper PMC10307832", "experiment_in_all_cases": "relative viability (nuclei count vs DMSO), 5 days (fraction); higher = more cells survive", "key": {"NCI-H2347": {"system": "NCI-H2347", "procedure,_shortened": "(§1)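 Five library-drug doses in √10 steps were combined with a fixed anchor-drug dose, or a single drug was given alone, by pin tool to lung cancer cell lines in 1536-well plates the day after seeding. Nuclei were stained and counted after 5 days. Relative viability is the nuclei count in treated wells over that in vehicle wells, taken as the median of duplicate plates.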"}, "EPLC-272H": {"system": "EPLC-272H", "procedure,_shortened": "as §1"}, "H3255": {"system": "H3255", "procedure,_shortened": "as §1"}, "NCI-H650": {"system": "NCI-H650", "procedure,_shortened": "as §1"}, "201T": {"system": "201T", "procedure,_shortened": "as §1"}, "COR-L 105": {"system": "COR-L 105", "procedure,_shortened": "as §1"}, "NCI-H2087": {"system": "NCI-H2087", "procedure,_shortened": "as §1"}, "NCI-H2126": {"system": "NCI-H2126", "procedure,_shortened": "as §1"}, "NCI-H2405": {"system": "NCI-H2405", "procedure,_shortened": "as §1"}, "HCC-78": {"system": "HCC-78", "procedure,_shortened": "as §1"}, "LC-2-ad": {"system": "LC-2-ad", "procedure,_shortened": "as §1"}, "NCI-H1666": {"system": "NCI-H1666", "procedure,_shortened": "as §1"}, "LCLC-97TM1": {"system": "LCLC-97TM1", "procedure,_shortened": "as §1"}, "NCI-H23": {"system": "NCI-H23", "procedure,_shortened": "as §1"}, "NCI-H322M": {"system": "NCI-H322M", "procedure,_shortened": "as §1"}, "HCC-827": {"system": "HCC-827", "procedure,_shortened": "as §1"}, "NCI-H1915": {"system": "NCI-H1915", "procedure,_shortened": "as §1"}, "NCI-H520": {"system": "NCI-H520", "procedure,_shortened": "as §1"}, "NCI-H661": {"system": "NCI-H661", "procedure,_shortened": "as §1"}, "PC-14": {"system": "PC-14", "procedure,_shortened": "as §1"}, "RERF-LC-KJ": {"system": "RERF-LC-KJ", "procedure,_shortened": "as §1"}, "NCI-H647": {"system": "NCI-H647", "procedure,_shortened": "as §1"}}, "data": [{"smiles": "C[C@@H]1CN(CC(=O)Nc2ccc3c(c2)Cc2cccc(-c4cc(=O)cc(N5CCOCC5)o4)c2S3)C[C@H](C)O1", "note": "+ CS(=O)(=O)CCNCc1ccc(-c2ccc3ncnc(Nc4ccc(OCc5cccc(F)c5)c(Cl)c4)c3c2)o1 [Lapatinib] (partner 2 µM)", "values": [{"measurement": "relative viability", "setting": "NCI-H2347; first compound 0.04 µM", "value": 0.79}, {"measurement": "relative viability", "setting": "NCI-H2347; first compound 0.1265 µM", "value": 1.04}, {"measurement": "relative viability", "setting": "NCI-H2347; first compound 0.4 µM", "value": 0.988}, {"measurement": "relative viability", "setting": "NCI-H2347; first compound 4 µM", "value": 0.875}, {"measurement": "relative viability", "setting": "EPLC-272H; first compound 0.04 µM", "value": 0.837}, {"measurement": "relative viability", "setting": "EPLC-272H; first compound 0.1265 µM", "value": 1}, {"measurement": "relative viability", "setting": "EPLC-272H; first compound 0.4 µM", "value": 1.01}, {"measurement": "relative viability", "setting": "EPLC-272H; first compound 4 µM", "value": 0.783}, {"measurement": "relative viability", "setting": "H3255; first compound 0.04 µM", "value": 0.221}, {"measurement": "relative viability", "setting": "H3255; first compound 0.1265 µM", "value": 0.242}, {"measurement": "relative viability", "setting": "H3255; first compound 0.4 µM", "value": 0.233}, {"measurement": "relative viability", "setting": "H3255; first compound 4 µM", "value": 0.214}, {"measurement": "relative viability", "setting": "NCI-H650; first compound 0.04 µM", "value": 0.583}, {"measurement": "relative viability", "setting": "NCI-H650; first compound 0.1265 µM", "value": 0.852}, {"measurement": "relative viability", "setting": "NCI-H650; first compound 0.4 µM", "value": 0.857}, {"measurement": "relative viability", "setting": "NCI-H650; first compound 4 µM", "value": 0.697}, {"measurement": "relative viability", "setting": "201T; first compound 0.04 µM", "value": 1.07}, {"measurement": "relative viability", "setting": "201T; first compound 0.1265 µM", "value": 0.976}, {"measurement": "relative viability", "setting": "201T; first compound 0.4 µM", "value": 1.08}, {"measurement": "relative viability", "setting": "201T; first compound 4 µM", "value": 0.988}, {"measurement": "relative viability", "setting": "COR-L 105; first compound 0.04 µM", "value": 0.28}, {"measurement": "relative viability", "setting": "COR-L 105; first compound 0.1265 µM", "value": 0.302}, {"measurement": "relative viability", "setting": "COR-L 105; first compound 0.4 µM", "value": 0.381}, {"measurement": "relative viability", "setting": "COR-L 105; first compound 4 µM", "value": 0.359}, {"measurement": "relative viability", "setting": "NCI-H2087; first compound 0.04 µM", "value": 1.06}, {"measurement": "relative viability", "setting": "NCI-H2087; first compound 0.1265 µM", "value": 1.01}, {"measurement": "relative viability", "setting": "NCI-H2087; first compound 0.4 µM", "value": 1.13}, {"measurement": "relative viability", "setting": "NCI-H2087; first compound 4 µM", "value": 0.798}, {"measurement": "relative viability", "setting": "NCI-H2126; first compound 0.04 µM", "value": 0.762}, {"measurement": "relative viability", "setting": "NCI-H2126; first compound 0.1265 µM", "value": 0.757}, {"measurement": "relative viability", "setting": "NCI-H2126; first compound 0.4 µM", "value": 0.764}, {"measurement": "relative viability", "setting": "NCI-H2126; first compound 4 µM", "value": 0.763}, {"measurement": "relative viability", "setting": "NCI-H2405; first compound 0.04 µM", "value": 0.879}, {"measurement": "relative viability", "setting": "NCI-H2405; first compound 0.1265 µM", "value": 1.11}, {"measurement": "relative viability", "setting": "NCI-H2405; first compound 0.4 µM", "value": 1.04}, {"measurement": "relative viability", "setting": "NCI-H2405; first compound 4 µM", "value": 1.07}, {"measurement": "relative viability", "setting": "HCC-78; first compound 0.04 µM", "value": 0.64}, {"measurement": "relative viability", "setting": "HCC-78; first compound 0.1265 µM", "value": 0.705}, {"measurement": "relative viability", "setting": "HCC-78; first compound 0.4 µM", "value": 0.702}, {"measurement": "relative viability", "setting": "HCC-78; first compound 4 µM", "value": 0.703}, {"measurement": "relative viability", "setting": "LC-2-ad; first compound 0.04 µM", "value": 1}, {"measurement": "relative viability", "setting": "LC-2-ad; first compound 0.1265 µM", "value": 0.928}, {"measurement": "relative viability", "setting": "LC-2-ad; first compound 0.4 µM", "value": 0.672}, {"measurement": "relative viability", "setting": "LC-2-ad; first compound 4 µM", "value": 0.875}, {"measurement": "relative viability", "setting": "NCI-H1666; first compound 0.04 µM", "value": 0.745}, {"measurement": "relative viability", "setting": "NCI-H1666; first compound 0.1265 µM", "value": 0.667}, {"measurement": "relative viability", "setting": "NCI-H1666; first compound 0.4 µM", "value": 0.665}, {"measurement": "relative viability", "setting": "NCI-H1666; first compound 4 µM", "value": 0.579}, {"measurement": "relative viability", "setting": "LCLC-97TM1; first compound 0.1265 µM", "value": 0.851}, {"measurement": "relative viability", "setting": "LCLC-97TM1; first compound 0.4 µM", "value": 0.867}, {"measurement": "relative viability", "setting": "LCLC-97TM1; first compound 4 µM", "value": 0.858}, {"measurement": "relative viability", "setting": "NCI-H23; first compound 0.04 µM", "value": 0.886}, {"measurement": "relative viability", "setting": "NCI-H23; first compound 0.1265 µM", "value": 1.16}, {"measurement": "relative viability", "setting": "NCI-H23; first compound 0.4 µM", "value": 1.01}, {"measurement": "relative viability", "setting": "NCI-H23; first compound 4 µM", "value": 1.04}, {"measurement": "relative viability", "setting": "NCI-H322M; first compound 0.04 µM", "value": 0.39}, {"measurement": "relative viability", "setting": "NCI-H322M; first compound 0.1265 µM", "value": 0.587}, {"measurement": "relative viability", "setting": "NCI-H322M; first compound 0.4 µM", "value": 0.626}, {"measurement": "relative viability", "setting": "NCI-H322M; first compound 4 µM", "value": 0.535}, {"measurement": "relative viability", "setting": "HCC-827; first compound 0.04 µM", "value": 0.172}, {"measurement": "relative viability", "setting": "HCC-827; first compound 0.1265 µM", "value": 0.191}, {"measurement": "relative viability", "setting": "HCC-827; first compound 0.4 µM", "value": 0.212}, {"measurement": "relative viability", "setting": "HCC-827; first compound 4 µM", "value": 0.19}, {"measurement": "relative viability", "setting": "NCI-H1915; first compound 0.04 µM", "value": 0.872}, {"measurement": "relative viability", "setting": "NCI-H1915; first compound 0.1265 µM", "value": 0.956}, {"measurement": "relative viability", "setting": "NCI-H1915; first compound 0.4 µM", "value": 1.06}, {"measurement": "relative viability", "setting": "NCI-H1915; first compound 4 µM", "value": 0.785}, {"measurement": "relative viability", "setting": "NCI-H520; first compound 0.04 µM", "value": 0.983}, {"measurement": "relative viability", "setting": "NCI-H520; first compound 0.1265 µM", "value": 0.701}, {"measurement": "relative viability", "setting": "NCI-H520; first compound 0.4 µM", "value": 0.682}, {"measurement": "relative viability", "setting": "NCI-H520; first compound 4 µM", "value": 0.711}, {"measurement": "relative viability", "setting": "NCI-H661; first compound 0.1265 µM", "value": 0.488}, {"measurement": "relative viability", "setting": "NCI-H661; first compound 0.4 µM", "value": 0.479}, {"measurement": "relative viability", "setting": "NCI-H661; first compound 4 µM", "value": 0.411}, {"measurement": "relative viability", "setting": "PC-14; first compound 0.04 µM", "value": 0.277}, {"measurement": "relative viability", "setting": "PC-14; first compound 0.1265 µM", "value": 0.298}, {"measurement": "relative viability", "setting": "PC-14; first compound 0.4 µM", "value": 0.298}, {"measurement": "relative viability", "setting": "PC-14; first compound 4 µM", "value": 0.316}, {"measurement": "relative viability", "setting": "RERF-LC-KJ; first compound 0.04 µM", "value": 0.873}, {"measurement": "relative viability", "setting": "RERF-LC-KJ; first compound 0.1265 µM", "value": 0.877}, {"measurement": "relative viability", "setting": "RERF-LC-KJ; first compound 0.4 µM", "value": 0.808}, {"measurement": "relative viability", "setting": "RERF-LC-KJ; first compound 4 µM", "value": 0.799}, {"measurement": "relative viability", "setting": "NCI-H647; first compound 0.04 µM", "value": 1.02}, {"measurement": "relative viability", "setting": "NCI-H647; first compound 0.1265 µM", "value": 1.07}, {"measurement": "relative viability", "setting": "NCI-H647; first compound 0.4 µM", "value": 1.16}, {"measurement": "relative viability", "setting": "NCI-H647; first compound 4 µM", "value": 0.638}]}]}
